Among the test systems are TK-10 renal; MDA-MB-435; HOP-62 NSCLC; UACC-62 melanoma; CCRF-CEM leukemia; HCT-116 colon; HCT-15 colon; ACHN renal; SW-620 colon; LOX IMVI melanoma; A549 NSCLC; UACC-257 melanoma; EKVX NSCLC; SR leukemia; SK-MEL-5 melanoma; MDA-N; MALME-3M melanoma; RPMI-8226 leukemia; M14 melanoma.
Holding throughout (assay): DTP human tumour cell line panel, 48 h

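Values below derive from 48-hour exposures of cells grown in 96-well plates, with endpoints linearly interpolated between the two concentrations bracketing the appropriate inhibition level. The concentration for full growth arrest is given as TGI.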 Some results are limits rather than exact numbers.

For seven molecules, TGI results are on record in PubChem BioAssay (NCI).

Usually TGI stands for the concentration at which net growth stops. Lower therefore signals greater sensitivity of the cells. With `NC1=NC(c2ccc(Cl)cc2)=CC(c2cccc(Cl)c2)S1` (stereo not drawn), the TGI with TK-10 renal is 60.7 µM; in the assay on MDA-MB-435, 38.9 µM; with HOP-62 NSCLC it was greater than 100 µM; with UACC-62 melanoma, 51.4 µM; in the assay on CCRF-CEM leukemia, greater than 100 µM; with HCT-116 colon, greater than 100 µM. Further, the TGI was 33.2 µM with HCT-15 colon; 59.9 µM in the assay on ACHN renal; greater than 100 µM with SW-620 colon; 99.1 µM in the assay with LOX IMVI melanoma; 87.2 µM with A549 NSCLC; 81.7 µM in the assay on UACC-257 melanoma. For the same molecule, the total growth inhibition concentration (TGI) is 96.9 µM in the assay with EKVX NSCLC; 72.5 µM in the assay on SR leukemia; 80.7 µM in the assay with SK-MEL-5 melanoma; 52.9 µM in the assay on MDA-N; greater than 100 µM in the assay with MALME-3M melanoma; 44 µM in the assay with RPMI-8226 leukemia. The same molecule registered a concentration for total growth inhibition (TGI) in the assay on M14 melanoma greater than 100 µM.
With `O=C1c2ccccc2C(=O)c2c1oc1cc(O)c(Cl)cc21`, the TGI in the assay with TK-10 renal is 38.5 µM; with MDA-MB-435 it was 3.34 µM; in the assay with HOP-62 NSCLC, 21.7 µM; in the assay with UACC-62 melanoma, 4.32 µM; in the assay with CCRF-CEM leukemia, 55.3 µM; in the assay with HCT-116 colon, 15.1 µM. Besides, the TGI is 17.8 µM in the assay on HCT-15 colon; 17 µM in the assay with ACHN renal; 24.9 µM with SW-620 colon; 7.88 µM in the assay on LOX IMVI melanoma; 9.46 µM in the assay on A549 NSCLC; 7.78 µM in the assay with UACC-257 melanoma. Besides, the TGI with EKVX NSCLC is 29.6 µM; in the assay on SR leukemia, greater than 54.6 µM; in the assay on SK-MEL-5 melanoma, 1.58 µM; in the assay on MDA-N, 3.35 µM; in the assay on MALME-3M melanoma, 2.51 µM; with RPMI-8226 leukemia, 55.3 µM. In the assay with M14 melanoma, this molecule registered a TGI of 6.88 µM.
Turning to `Cc1cc(-c2nc3cc(F)ccc3s2)ccc1N`, the TGI in the assay on TK-10 renal was greater than 4.64 µM; in the assay with MDA-MB-435, greater than 100 µM; with HOP-62 NSCLC it was 72 µM; with UACC-62 melanoma it was greater than 100 µM; in the assay with CCRF-CEM leukemia, greater than 100 µM; in the assay on HCT-116 colon it was greater than 91 µM. Besides, the total growth inhibition concentration (TGI) was greater than 100 µM with HCT-15 colon; greater than 87.3 µM in the assay on ACHN renal; greater than 100 µM with SW-620 colon; greater than 100 µM with LOX IMVI melanoma; greater than 100 µM with A549 NSCLC; greater than 69.9 µM with UACC-257 melanoma. Moreover, the concentration for total growth inhibition (TGI) in the assay with EKVX NSCLC is greater than 85.3 µM; in the assay with SR leukemia, greater than 100 µM; in the assay with SK-MEL-5 melanoma, greater than 82.3 µM; in the assay with MDA-N, greater than 100 µM; in the assay with MALME-3M melanoma, greater than 100 µM; in the assay on RPMI-8226 leukemia, greater than 100 µM. In addition, the TGI with M14 melanoma is greater than 88.8 µM.
For the molecule `CC(C)CC(N)C(=O)NC(CNC(CCC(N)=O)C(=O)NC(CC(C)C)C(=O)NC(CC(C)C)C(=O)O)Cc1ccc2ccccc2c1` (stereo not drawn), the TGI with TK-10 renal, in the assay on MDA-MB-435, in the assay with HOP-62 NSCLC, in the assay with UACC-62 melanoma, in the assay on CCRF-CEM leukemia and in the assay on HCT-116 colon was greater than 10 µM in each case. Further, the TGI with HCT-15 colon, with ACHN renal, in the assay on SW-620 colon, in the assay on LOX IMVI melanoma, in the assay with A549 NSCLC and in the assay with UACC-257 melanoma was greater than 10 µM throughout. For the same molecule, the TGI in the assay on EKVX NSCLC, with SR leukemia, in the assay on SK-MEL-5 melanoma, in the assay on MDA-N, in the assay with MALME-3M melanoma and with RPMI-8226 leukemia was greater than 10 µM in each case. Moreover, in the assay on M14 melanoma, the TGI is greater than 10 µM.
On to `O=S(=O)(O)c1c(Cl)c(Cl)c(O)c2ncccc12`, for which the TGI with TK-10 renal is 27.4 µM; with MDA-MB-435, 30.5 µM; in the assay on HOP-62 NSCLC it was 17.6 µM; with UACC-62 melanoma, 29.7 µM; with CCRF-CEM leukemia, 31.7 µM; in the assay on HCT-116 colon it was 16.6 µM. In addition, the TGI in the assay with HCT-15 colon is 27.1 µM; with ACHN renal, 26.2 µM; with SW-620 colon, greater than 72.4 µM; in the assay on LOX IMVI melanoma, 7.99 µM; in the assay on A549 NSCLC it was 28.3 µM; in the assay on UACC-257 melanoma it was 97.6 µM. Moreover, the concentration for total growth inhibition (TGI) in the assay with EKVX NSCLC is 41.6 µM; in the assay with SR leukemia it was 27.6 µM; with SK-MEL-5 melanoma, 28.6 µM; in the assay with MDA-N it was 43.6 µM; with MALME-3M melanoma, 31.1 µM; in the assay with RPMI-8226 leukemia, greater than 83.6 µM. In the assay on M14 melanoma, this molecule had a concentration for total growth inhibition (TGI) of 27.1 µM.
For the molecule `CN(C)CCC(=O)[C@@]1(O)CC[C@H]2[C@@H]3CC=C4C[C@@H](O)CC[C@]4(C)[C@H]3CC[C@@]21C`, the TGI with TK-10 renal was 6.96 µM; with MDA-MB-435, 45.5 µM; with HOP-62 NSCLC, 30.6 µM; in the assay with UACC-62 melanoma, 32.2 µM; with CCRF-CEM leukemia, greater than 55.7 µM; in the assay with HCT-116 colon, 32.6 µM. The TGI in the assay with HCT-15 colon was 45.1 µM; with ACHN renal it was 29.5 µM; with SW-620 colon it was 50.2 µM; in the assay on LOX IMVI melanoma, 28.7 µM; with A549 NSCLC it was greater than 86.8 µM; in the assay with UACC-257 melanoma, 26.1 µM. In addition, the concentration for total growth inhibition (TGI) was 42.6 µM in the assay with EKVX NSCLC; 39.4 µM with SR leukemia; greater than 81.8 µM in the assay with SK-MEL-5 melanoma; 34.5 µM in the assay on MDA-N; 28.8 µM with MALME-3M melanoma; 7.01 µM with RPMI-8226 leukemia. In addition, in the assay with M14 melanoma, the TGI worked out at 34.2 µM.
For `COC(=O)[C@]12CC[C@H]3CN(S(=O)(=O)c4ccc(C)cc4)[C@H]([C@H]31)[C@H](c1ccco1)N2S(=O)(=O)c1ccc(C)cc1`, the TGI in the assay on TK-10 renal was greater than 100 µM; in the assay with MDA-MB-435, 55.8 µM; in the assay with HOP-62 NSCLC, greater than 100 µM; with UACC-62 melanoma, 69.3 µM; in the assay on CCRF-CEM leukemia, greater than 100 µM; in the assay with HCT-116 colon, greater than 100 µM. Besides, the TGI in the assay with HCT-15 colon is greater than 100 µM; in the assay with ACHN renal it was greater than 100 µM; with SW-620 colon, greater than 100 µM; with LOX IMVI melanoma, greater than 100 µM; in the assay on A549 NSCLC, greater than 100 µM; with UACC-257 melanoma, 81.1 µM. Moreover, the total growth inhibition concentration (TGI) with EKVX NSCLC was greater than 100 µM; in the assay with SR leukemia, greater than 100 µM; in the assay on SK-MEL-5 melanoma, greater than 100 µM; in the assay with MDA-N, 73.7 µM; in the assay on MALME-3M melanoma it was 58.3 µM; in the assay with RPMI-8226 leukemia, 86.2 µM. Also, the total growth inhibition concentration (TGI) in the assay with M14 melanoma was 92.4 µM.
